In assay [1] the target is Somatostatin receptor type 3 (Mus musculus, UniProt P30935).
The target in assay [2] is T1, Somatostatin receptor type 5 (Rattus norvegicus, UniProt P30938).
T1 sequence (P30938 whole entry): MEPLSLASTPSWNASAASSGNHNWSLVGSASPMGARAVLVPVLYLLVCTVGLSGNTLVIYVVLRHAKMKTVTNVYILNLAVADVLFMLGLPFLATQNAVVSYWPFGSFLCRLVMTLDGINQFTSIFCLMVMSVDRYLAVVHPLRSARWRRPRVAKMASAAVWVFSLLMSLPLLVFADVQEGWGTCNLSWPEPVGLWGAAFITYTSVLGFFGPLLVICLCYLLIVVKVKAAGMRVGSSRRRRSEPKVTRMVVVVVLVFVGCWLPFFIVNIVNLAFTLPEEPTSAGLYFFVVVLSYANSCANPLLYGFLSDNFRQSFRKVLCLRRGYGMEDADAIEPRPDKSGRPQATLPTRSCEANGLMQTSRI

For assay [3], the target named is Somatostatin receptor type 4 (Mus musculus, UniProt P49660).
Somatostatin receptor type 4, sequence (P49660 whole entry): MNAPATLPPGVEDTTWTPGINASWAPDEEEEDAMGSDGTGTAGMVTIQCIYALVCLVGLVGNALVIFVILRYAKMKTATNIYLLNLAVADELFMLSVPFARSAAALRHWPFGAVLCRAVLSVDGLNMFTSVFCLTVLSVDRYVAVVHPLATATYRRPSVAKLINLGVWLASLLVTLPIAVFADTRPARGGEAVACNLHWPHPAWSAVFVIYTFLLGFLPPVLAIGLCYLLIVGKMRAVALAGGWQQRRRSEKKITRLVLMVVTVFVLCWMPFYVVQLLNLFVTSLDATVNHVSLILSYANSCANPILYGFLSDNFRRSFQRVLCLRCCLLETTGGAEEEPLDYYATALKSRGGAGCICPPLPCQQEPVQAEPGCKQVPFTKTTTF
Assay [4] has as its target Somatostatin receptor type 2 (Mus musculus, UniProt P30875).
For assay [5], the target named is Somatostatin receptor type 1 (Homo sapiens, UniProt P30872).
Somatostatin receptor type 1, sequence (P30872 whole entry): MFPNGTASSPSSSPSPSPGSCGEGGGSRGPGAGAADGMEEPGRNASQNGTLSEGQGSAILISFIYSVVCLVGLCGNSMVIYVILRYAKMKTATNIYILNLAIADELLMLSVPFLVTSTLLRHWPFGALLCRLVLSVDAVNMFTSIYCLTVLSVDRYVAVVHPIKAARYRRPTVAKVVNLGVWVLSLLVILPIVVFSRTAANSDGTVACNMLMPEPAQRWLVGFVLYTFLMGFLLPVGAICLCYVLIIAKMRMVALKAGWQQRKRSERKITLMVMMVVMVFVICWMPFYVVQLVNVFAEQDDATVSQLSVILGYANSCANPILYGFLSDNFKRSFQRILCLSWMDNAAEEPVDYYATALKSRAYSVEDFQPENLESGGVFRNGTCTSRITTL

*1 amine or outer side, *2 acyl side, *3 side chain or, on linkers, in order; H or OH if unused. Where a SMILES comes first, the peptide text is derived from it. Bridges are numbered along the chain shown (N, C = ends). [ ]: non-standard residue; d: D form. ξ: configuration not given here. Phe(4-Cl) = N[C@@H](Cc1ccc(Cl)cc1)C(=O)O; d2Nal = N[C@H](Cc1ccc2ccccc2c1)C(=O)O; X1 = O=C(C(N[*:1])S[*:3])[*:2]; Ahp = NCCCCCCC(=O)O; ξC = NC(CS)C(=O)O; Mpa = O=C(O)CCS Bounds are passed on as bounds.

Here are results for 7 molecules from BindingDB's records for doi:10.1007/BF00173012 (Sandoz Pharma, 1994).

Somatostatin receptor type 3, sequence (P30935 whole entry): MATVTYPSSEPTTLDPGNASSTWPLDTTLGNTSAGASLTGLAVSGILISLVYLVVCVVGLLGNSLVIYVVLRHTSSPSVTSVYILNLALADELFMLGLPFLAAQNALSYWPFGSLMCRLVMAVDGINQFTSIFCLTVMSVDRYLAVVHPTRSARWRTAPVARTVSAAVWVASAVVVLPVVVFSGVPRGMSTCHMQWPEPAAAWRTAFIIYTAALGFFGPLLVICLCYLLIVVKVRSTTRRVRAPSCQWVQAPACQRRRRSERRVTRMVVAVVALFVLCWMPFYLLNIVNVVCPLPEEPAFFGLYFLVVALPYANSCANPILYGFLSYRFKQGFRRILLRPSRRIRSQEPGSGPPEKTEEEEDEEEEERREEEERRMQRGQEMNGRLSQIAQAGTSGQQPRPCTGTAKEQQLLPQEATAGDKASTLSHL
Somatostatin receptor type 2, sequence (P30875 whole entry): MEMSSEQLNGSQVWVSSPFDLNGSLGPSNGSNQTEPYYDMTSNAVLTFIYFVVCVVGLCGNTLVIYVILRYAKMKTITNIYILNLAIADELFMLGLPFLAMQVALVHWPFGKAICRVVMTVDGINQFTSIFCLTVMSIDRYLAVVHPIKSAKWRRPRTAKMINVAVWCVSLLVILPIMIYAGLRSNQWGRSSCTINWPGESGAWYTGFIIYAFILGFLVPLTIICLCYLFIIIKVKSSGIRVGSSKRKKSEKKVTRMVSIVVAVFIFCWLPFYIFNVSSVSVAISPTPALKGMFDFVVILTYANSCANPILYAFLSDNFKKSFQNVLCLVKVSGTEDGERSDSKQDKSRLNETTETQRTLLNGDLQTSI

Turning to `C[C@@H](O)[C@@H]1NC(=O)[C@H](CCCCN)NC(=O)[C@@H](Cc2c[nH]c3ccccc23)NC(=O)[C@H](Cc2ccccc2)NC(=O)[C@@H]2CSSCC(NC1=O)C(=O)NCCCCCCC(=O)N2` [(1R,4S,7S,10R,13S,16R)-4-[(R)-1-Hydroxyethyl]-7-(4-aminobutyl)-10-(1H-indole-3-ylmethyl)-13-benzyl-28,29-dithia-2,5,8,11,14,17,25-heptaazabicyclo[14.10.4]triacontane-3,6,9,12,15,18,26-heptone] (cyclo([Ahp]CF[dW]KT[ξC]); disulfide 2-7), the inhibitory constant (Ki) stood at 0.07 nM in assay [1], 1.2 nM in assay [2] and 1000 nM in assay [3].
For the molecule `CC(C)[C@@H]1NC(=O)[C@H](CCCCN)NC(=O)[C@@H](Cc2c[nH]c3ccccc23)NC(=O)[C@H](Cc2ccc(O)cc2)NC(=O)[C@@H](NC(=O)[C@H](N)Cc2ccccc2)CSSC[C@@H](C(=O)N[C@@H](Cc2c[nH]c3ccccc23)C(N)=O)NC1=O` [CAS_71306] (H-[dF]CY[dW]KVCW-NH2; disulfide 2-7), the Ki in assay [1] was found to be 22.9 nM; in assay [3], 170 nM; in assay [4], 0.1 nM.
For the molecule `CC(C)[C@@H]1NC(=O)[C@H](CCCCN)NC(=O)[C@@H](Cc2c[nH]c3ccccc23)NC(=O)[C@H](Cc2ccc(O)cc2)NC(=O)CCSSC(C(=O)N[C@@H](Cc2ccccc2)C(N)=O)NC1=O` (some centres not stated) [CAS_117580-24-2] ([Mpa]Y[dW]KV[X1]F-NH2; disulfide 1-6), the Ki in assay [1] was 245 nM; in assay [2], 3.89 nM; in assay [3] it was 363 nM; in assay [4], 355 nM.
In the case of `CC(C)[C@H](NC(=O)[C@H](CCCCN)NC(=O)[C@@H](Cc1c[nH]c2ccccc12)NC(=O)[C@H](Cc1ccc(O)cc1)NC(=O)[C@H](Cc1ccccc1)NC(=O)[C@H](N)Cc1ccccc1)C(=O)N[C@@H](Cc1ccccc1)C(=O)N[C@H](Cc1ccc2ccccc2c1)C(N)=O` [CAS_150155-61-6] (H-[dF]FY[dW]KVF[d2Nal]-NH2), the inhibition constant (Ki) was 1000 nM in assay [5]; 0.01 nM in assay [1]; 42.6 nM in assay [2]; 158 nM in assay [3]; > 10000 nM in assay [4].
As for `C[C@@H](O)[C@@H]1NC(=O)[C@H](Cc2ccc(O)cc2)NC(=O)[C@H]([C@@H](C)O)NC(=O)[C@H](CCCCN)NC(=O)[C@H](Cc2c[nH]c3ccccc23)NC(=O)[C@H](Cc2ccccc2)NC(=O)[C@H](Cc2ccccc2)NC(=O)[C@H](CC(N)=O)NC(=O)[C@H](CCCCN)NC(=O)CCCCC[C@@H](C(=O)O)NC(=O)[C@H](CO)NC1=O` [CGP-23996], the Ki in assay [5] worked out at 100 nM; in assay [1] it was 0.6 nM; in assay [3] it was 1.41 nM; in assay [4], 1 nM.
In assay [4], `C[C@@H](O)[C@H](NC(=O)[C@@H]1CSSC[C@H](NC(=O)[C@H](N)Cc2ccc3ccccc3c2)C(=O)N[C@@H](Cc2ccc(O)cc2)C(=O)N[C@H](Cc2c[nH]c3ccccc23)C(=O)N[C@@H](CCCCN)C(=O)N[C@@H]([C@@H](C)O)C(=O)N1)C(N)=O` [D-Nal-c[Cys-Tyr-D-Trp-Lys-Thr-Cys]-Thr-NH2] registered an inhibition constant Ki of 0.01 nM. In other words, the picomolar range.
For `C[C@@H](O)[C@@H]1NC(=O)[C@H](Cc2ccccc2)NC(=O)[C@H]([C@@H](C)O)NC(=O)[C@H](CCCCN)NC(=O)[C@@H](Cc2c[nH]c3ccccc23)NC(=O)[C@H](Cc2ccccc2)NC(=O)[C@H](Cc2ccc(Cl)cc2)NC(=O)[C@H](CC(N)=O)NC(=O)[C@H](CCCCN)NC(=O)[C@@H](N)CSSC[C@@H](C(=O)O)NC(=O)[C@H](CO)NC1=O` [EC5-21] (H-CKN[Phe(4-Cl)]F[dW]KTFTSC-OH; disulfide 1-12), the Ki in assay [3] stood at 1.81 nM; in assay [4] it was 0.01 nM.

In general, Ki refers to the dissociation constant of the complex between target and ligand, obtained from inhibition or displacement.
